In patent US20230312587A1, “PTERIDINONE COMPOUNDS AND USES THEREOF” (Vertex Pharmaceutical Incorporated, priority 2018, published 2023):
Like-named read-outs stand apart in the source and are kept apart here.

Test system: β-catenin-TCF-mediated reporter transcription activity in Colo 205 cells
Assay: Colo 205 reporter assay (TCF/LEF luciferase)
Type: cell-based
Conditions: Homo sapiens, COLO 205, 5 h
Excerpt: The compounds of the invention described herein were screened using the assay procedure for β-catenin-TCF-mediated reporter transcription activity described below.
Reporter cell lines were generated by stably transfecting cells of cancer cell lines (e.g., colon cancer) with a plasmid reporter construct (From SABiosciences, a QIAGEN company) that includes TCF/LEF promoter driving expression of the firefly luciferase gene. TCF/LEF reporter constructs were made in which TCF/LEF promoter, a promoter with optimal number of TCF/LEF binding sites designed by SABiosceinces, was linked upstream of the firefly luciferase gene. This construct could also include a puromycin resistance gene as a selectable marker. This construct could also be used to stably transfect Colo 205 cells, a colon cancer cell line having a mutated APC gene that causes a constitutively active β-catenin. A control cell line was generated using another plasmid construct containing the luciferase gene under the control of a CMV basal promoter which is not activated by p-catenin.
Colo 205 Cultured cells with a stably transfected reporter construct were plated at approximately 10,000 cells per well into 384 well multi-well plates for twenty four hours. The testing compounds were then added to the wells in 2-fold serial dilutions using a twenty micromolar top concentration. A series of control wells for each cell type received only compound solvent. Five hours after the addition of compound, reporter activity for luciferase was assayed, by addition of the SteadyGlo luminescence reagent (Promega). The reporter luminescence activity was measured using Pherastar plate reader (BMG Labtech). Readings were normalized to DMSO only treated cells, and normalized activities were then used in the IC50 calculations. The Colo 205 reporter assay data are summarized in Table 45: A<0.3 μM; 0.3 μM≤B<1.0 μM; 1.0 μM≤C<5.0 μM; D≥5.0 μM
Colo 205 reporter assay data has also been obtained for certain R-isomers of Formula (I) wherein R^4 is —H or -D, and wherein the carbon to which R^3 and R^4 are attached (C2 carbon of Formula (X)) has R stereochemistry; such epimeric compounds are represented using the suffix “B” attached to the Compound described herein having the S stereochemistry at the carbon to which R^3 and R^4 are attached: […]

[1] = Colo 205 TCF/LEF luciferase reporter, five hours after addition of compound, read-out: TCF reporter Colo205 IC50

| Compound | IC50 [1] [nM] | other results |
| --- | --- | --- |
| C#CC[C@H]1C(=O)N(C)c2cnc(NCc3cnn(Cc4ccc(F)cc4)c3)nc2N1C [Compound 26, (7S)-2-(((1-(4-fluorobenzyl)-1H-pyrazol-4-yl)methyl)amino)-5,8-dimethyl-7-(prop-2-yn-1-yl)-7,8-dihydropteridin-6(5H)-one] | < 300 |  |
| Cc1nc(N[C@H]2C[C@H](Oc3ccc(OC(F)(F)F)c(F)c3)C2)nc2c1NC(=O)[C@H](C)N2C [Compound 359, (7S)-2-((trans-3-(3-fluoro-4-(trifluoromethoxy)phenoxy)cyclobutyl)amino)-4,7,8-trimethyl-7,8-dihydropteridin-6(5H)-one] | < 300 |  |
| Cc1nc(NCc2cnn(C[C@@H](C)c3ccccc3)c2)nc2c1NC(=O)[C@H](C)N2C [Compound 89, (7S)-4,7,8-trimethyl-2-(((1-((S)-2-phenylpropyl)-1H-pyrazol-4-yl)methyl)amino)-7,8-dihydropteridin-6(5H)-one] | < 300 |  |
| Cc1nc(NCc2cnn(Cc3ccnc(Cl)c3)c2)nc2c1NC(=O)[C@H](C(C)C)N2C [Compound 446, (7S)-2-(((1-((2-chloropyridin-4-yl)methyl)-1H-pyrazol-4-yl)methyl)amino)-7-isopropyl-4,8-dimethyl-7,8-dihydropteridin-6(5H)-one] | < 300 |  |
| Cc1nc(NCc2cnn(Cc3ccnc(Cl)c3)c2)nc2c1NC(=O)[C@H](C)N2C [Compound 185, (7S)-2-(((1-((2-chloropyridin-4-yl)methyl)-1H-pyrazol-4-yl)methyl)amino)-4,7,8-trimethyl-7,8-dihydropteridin-6(5H)-one] | 300 to 1000 |  |
| COc1cc(Cn2cc(CNc3nc(C)c4c(n3)N(C)[C@@H](C)C(=O)N4)cn2)ccn1 [Compound 203, (7S)-2-(((1-((2-methoxypyridin-4-yl)methyl)-1H-pyrazol-4-yl)methyl)amino)-4,7,8-trimethyl-7,8-dihydropteridin-6(5H)-one] | < 300 |  |
| Cc1nc(N[C@H]2C[C@H](Nc3cc(C(F)(F)F)ncn3)C2)nc2c1NC(=O)[C@H](C(C)C)N2C [Compound 530, (S)-7-isopropyl-4,8-dimethyl-2-((trans-3-((6-(trifluoromethyl)pyrimidin-4-yl)amino)cyclobutyl)amino)-7,8-dihydropteridin-6(5H)-one] | ≥ 5000 |  |
| COc1ccc(Cn2ccc(CNc3nc(C)c4c(n3)N(C)[C@@H](C)C(=O)N4)n2)cc1OC [Compound 76, (7S)-2-(((1-(3,4-dimethoxybenzyl)-1H-pyrazol-3-yl)methyl)amino)-4,7,8-trimethyl-7,8-dihydropteridin-6(5H)-one] | ≥ 5000 |  |
| Cc1cc(F)ccc1Cn1cc(CNc2nc(C)c3c(n2)N(C)[C@@H](C)C(=O)N3)cn1 [Compound 66, (7S)-2-(((1-(4-fluoro-2-methylbenzyl)-1H-pyrazol-4-yl)methyl)amino)-4,7,8-trimethyl-7,8-dihydropteridin-6(5H)-one] | < 300 |  |
| CC[C@@]1(C)C(=O)N(C)c2cnc(NCc3cnn(Cc4ccc(F)cc4)c3)nc2N1C [Compound I-226] | < 300 |  |
| Cc1nc(N[C@H]2C[C@H](Oc3ccc(OC(F)(F)F)cc3)C2)nc2c1NC(=O)[C@H](C)N2C [Compound 326, (7S)-4,7,8-trimethyl-2-((trans-3-(4-(trifluoromethoxy)phenoxy)-cyclobutyl)amino)-7,8-dihydropteridin-6(5H)-one] | < 300 |  |
| Cc1nc(NCc2cnn(Cc3ccc(Cl)nc3)c2)nc2c1NC(=O)[C@H](CC(C)C)N2C [Compound 550, (S)-2-(((1-((6-chloropyridin-3-yl)methyl)-1H-pyrazol-4-yl)methyl)amino)-7-isobutyl-4,8-dimethyl-7,8-dihydropteridin-6(5H)-one] | < 300 |  |
| Cc1nc(NCc2cnn(Cc3ccc4c(c3)OCO4)c2)nc2c1NC(=O)[C@H](C)N2C [Compound 181, (7S)-2-(((1-(benzo[d][1,3]dioxol-5-ylmethyl)-1H-pyrazol-4-yl)methyl)amino)-4,7,8-trimethyl-7,8-dihydropteridin-6(5H)-one] | < 300 |  |
| CCN1C(=O)C2(CC2)N(CC)c2nc(NCc3cnn(Cc4ccc(F)cc4)c3)ncc21 [Compound 232, 5′,8′-diethyl-2′-(((1-(4-fluorobenzyl)-1H-pyrazol-4-yl)methyl)amino)-5′,8′-dihydro-6′H-spiro[cyclopropane-1,7′-pteridin]-6′-one] | < 300 |  |
| Cc1nc(NCc2cnn(Cc3cc(F)c(F)cc3F)c2)nc2c1N(C)C(=O)[C@H](C)N2C [Compound 16, (7S)-4,5,7,8-tetramethyl-2-(((1-(2,4,5-trifluorobenzyl)-1H-pyrazol-4-yl)methyl)amino)-7,8-dihydropteridin-6(5H)-one] | < 300 |  |
| Cc1nc(N[C@H]2C[C@@H](Nc3nccc(C(F)(F)F)n3)C2)nc2c1NC(=O)[C@H](C(C)C)N2C [Compound 527, (S)-7-isopropyl-4,8-dimethyl-2-((cis-3-((4-(trifluoromethyl)pyrimidin-2-yl)amino)cyclobutyl)amino)-7,8-dihydropteridin-6(5H)-one] | 300 to 1000 |  |
| Cc1ccc(OC[C@H]2C[C@@H](Nc3nc(C)c4c(n3)N(C)[C@@H](C(C)C)C(=O)N4)C2)cn1 [Compound 571, (S)-7-isopropyl-4,8-dimethyl-2-((cis-3-(((6-methylpyridin-3-yl)oxy)methyl)cyclobutyl)amino)-7,8-dihydropteridin-6(5H)-one] | 300 to 1000 |  |
| CC[C@@H]1C(=O)Nc2c(C)nc(NCc3cnn(Cc4ccc(C(F)(F)F)nc4)c3)nc2N1C [Compound I-1635] |  | IC50 (R-isomer at C2 (corresponding to C2 S-isomer), Colo 205 TCF/LEF luciferase reporter, 5 h, read-out: TCF reporter Colo205 IC50): 1000 to 5000 nM |
| Cc1nc(NC2CN(C(=O)c3cc(C(C)C)on3)C2)nc2c1NC(=O)[C@H](C(C)C)N2C [Compound 619, (S)-7-isopropyl-2-((1-(5-isopropylisoxazole-3-carbonyl)azetidin-3-yl)amino)-4,8-dimethyl-7,8-dihydropteridin-6(5H)-one] | 1000 to 5000 |  |
| COc1ccc(Cn2cc(CNc3ncc4c(n3)N(C)[C@@H](C)C(=O)N4)cn2)cc1F [Compound 148, (7S)-2-(((1-(3-fluoro-4-methoxybenzyl)-1H-pyrazol-4-yl)methyl)amino)-7,8-dimethyl-7,8-dihydropteridin-6(5H)-one] | 300 to 1000 |  |
| Cc1nc(N[C@H]2C[C@@H](NC(=O)Nc3ccc(F)c(F)c3F)C2)nc2c1NC(=O)[C@H](C)N2C [Compound 460, 1-(2,3,4-trifluorophenyl)-3-(cis-3-(((S)-4,7,8-trimethyl-6-oxo-5,6,7,8-tetrahydropteridin-2-yl)amino)cyclobutyl)urea] | < 300 |  |
| Cc1nc(N(Cc2cnn(Cc3ccc(C(F)(F)F)nc3)c2)C(=O)[C@@H](N)C(C)C)nc2c1NC(=O)[C@H](C)N2C [Compound 402, (S)-2-amino-3-methyl-N-((1-((6-(trifluoromethyl)pyridin-3-yl)methyl)-1H-pyrazol-4-yl)methyl)-N-((S)-4,7,8-trimethyl-6-oxo-5,6,7,8-tetrahydropteridin-2-yl)butanamide] |  | IC50 (Colo 205 cells with stably transfected TCF/LEF luciferase reporter, five hours after addition of compound, read-out: TCF reporter Colo205): ≥ 5000 nM |
| Cc1ncc(Cn2cc(CNc3ncc4c(n3)N(C)[C@@H](C)C(=O)N4)cn2)cn1 [Compound 166, (7S)-7,8-dimethyl-2-(((1-((2-methylpyrimidin-5-yl)methyl)-1H-pyrazol-4-yl)methyl)amino)-7,8-dihydropteridin-6(5H)-one] | ≥ 5000 |  |
| Cc1nc(NCc2cnn([C@H](C)c3ccc(C(F)(F)F)nc3)c2)nc2c1NC(=O)[C@H](C)N2C [Compound 175, (7S)-4,7,8-Trimethyl-2-(((1-((R)-1-(6-(trifluoromethyl)pyridin-3-yl)ethyl)-1H-pyrazol-4-yl)methyl)amino)-7,8-dihydropteridin-6(5H)-one] | < 300 |  |
| Cc1nc(N[C@H]2C[C@H](NC(=O)c3cc(F)c(F)c(F)c3)C2)nc2c1NC(=O)[C@H](C)N2C [Compound 476, 3,4,5-trifluoro-N-(trans-3-(((S)-4,7,8-trimethyl-6-oxo-5,6,7,8-tetrahydropteridin-2-yl)amino)cyclobutyl)benzamide] | 1000 to 5000 |  |
| Cc1nc(NCc2cnn(C[C@@H](O)c3ccc(F)cc3)c2)nc2c1NC(=O)[C@H](C)N2C [Compound 131, (7S)-2-[[1-[(2S)-2-(4-fluorophenyl)-2-hydroxy-ethyl]pyrazol-4-yl]methylamino]-4,7,8-trimethyl-5,7-dihydropteridin-6-one] | 1000 to 5000 |  |
| Cc1nc(NC2CN(C(=O)c3cccc(C(F)(F)F)c3)C2)nc2c1NC(=O)[C@H](C(C)C)N2C [Compound 635, (S)-7-isopropyl-4,8-dimethyl-2-((1-(3-(trifluoromethyl)benzoyl)azetidin-3-yl)amino)-7,8-dihydropteridin-6(5H)-one] | < 300 |  |
